Results on 13 compounds are retold here after patent US20170081357A1, “[…] ACTIVE 17-NITROGEN SUBSTITUTED ESTRATREINTHIAZOLE DERIVATIVES AS INHIBITORS OF 17.BETA-HYDROXYSTEROID DEHYDROGENASE” (FORENDO PHARMA LTD, priority 2013, published 2017).

Experiment [1] deals with T1, recombinant human 17β-HSD1 (Homo sapiens, UniProt P14061).
T1 construct: made in house; host or cells: Sd9 (Sf9) insect cells, baculovirus (Bac to Bac Expression System); microsomal fraction
T1 sequence (P14061 1-328): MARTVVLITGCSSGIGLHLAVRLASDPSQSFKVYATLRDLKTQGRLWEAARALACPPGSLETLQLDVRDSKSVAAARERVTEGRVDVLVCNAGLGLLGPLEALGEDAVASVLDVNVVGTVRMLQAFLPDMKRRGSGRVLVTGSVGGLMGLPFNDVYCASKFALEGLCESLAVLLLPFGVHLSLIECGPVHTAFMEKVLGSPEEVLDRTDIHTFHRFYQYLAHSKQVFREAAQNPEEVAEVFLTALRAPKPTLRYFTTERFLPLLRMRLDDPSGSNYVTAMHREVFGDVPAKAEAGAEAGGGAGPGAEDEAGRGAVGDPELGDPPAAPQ
Kind of experiment: Inhibition of recombinant human 17β-HSD1 (conversion of 3H-estrone to estradiol, HPLC). It counts as biochemical. Particulars: inhibitor 1 μM; 30 nM estrone, 1 mM NADPH, 30 min at RT; read-out: 17β-HDS1 Inhibition % at 1 μM. The procedure:
17β-HSD1 production and isolation: Recombinant baculovirus was generated by the “Bac to Bac Expression System” (Invitrogen). Recombinant bacmid was transfected to Sd9 insect cells using “Cellfectin Reagent” (Invitrogen). 60 h later cells were harvested; the microsomal fraction was isolated as described by Puranen, T. J., Poutanen, M. H., Peltoketo, H. E., Vihko, P. T. and Vihko, R. K. (1994) Site-directed mutagenesis of the putative active site of human 17 β-hydroxysteroid dehydrogenase type 1. Biochem. J. 304: 289-293. Aliquots were stored frozen until determination of enzymatic activity.
Assay—Inhibition of recombinant human 17β-HSD1: Recombinant protein (1 μg/ml) was incubated in 20 mM KH2PO4 pH 7.4 with 30 nM estrone (including 800 000 cpm/ml of ^3H-estrone) and 1 mM NADPH for 30 min at RT, in the presence of the potential inhibitor at concentrations 1 μM or 0.1 μM. Inhibitor stock solutions were prepared in DMSO. Final concentration of DMSO was adjusted to 1% in all samples. The enzyme reaction was stopped by addition of 10% trichloroacetic acid (final concentration). Samples were centrifuged in a microtiter plate at 4000 rpm for 10 min. Supernatants were applied to reverse phase HPLC on a Waters Symmetry C18 column, equipped with a Waters Sentry Guard column. Isocratic HPLC runs were performed at RT at a flow rate of 1 ml/min in acetonitrile:water 48:52 as running solvent. Radioactivity was monitored in the eluate by a Packard Flow Scintillation Analyzer. Total radioactivity for estrone and estradiol were determined in each sample and percent conversion of estrone to estradiol was calculated according to the following formula:
(§1) Percent inhibition was calculated flowingly: % inhibition=100−% conversion

The target in experiment [2] is T2, recombinant human 17β-HSD2 (Homo sapiens, UniProt P37059).
T2 construct: made in house; host or cells: Sd9 (Sf9) insect cells, baculovirus (Bac to Bac Expression System); fractionated cell extract
T2 sequence (P37059 1-387): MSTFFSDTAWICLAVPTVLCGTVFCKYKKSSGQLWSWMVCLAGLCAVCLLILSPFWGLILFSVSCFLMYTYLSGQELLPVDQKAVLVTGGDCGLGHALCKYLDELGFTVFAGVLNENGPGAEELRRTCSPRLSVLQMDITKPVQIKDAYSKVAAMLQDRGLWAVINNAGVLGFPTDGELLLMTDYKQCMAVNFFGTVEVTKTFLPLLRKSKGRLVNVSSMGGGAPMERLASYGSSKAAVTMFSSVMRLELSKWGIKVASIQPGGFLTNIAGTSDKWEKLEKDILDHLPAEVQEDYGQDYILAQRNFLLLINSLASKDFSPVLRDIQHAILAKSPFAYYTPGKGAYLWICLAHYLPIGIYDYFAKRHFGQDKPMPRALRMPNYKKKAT
Kind of experiment: Inhibition of recombinant human 17β-HSD2 (conversion of 3H-estradiol to estrone, HPLC). It counts as biochemical. To be noted: inhibitor 1 μM; 50 nM estradiol, 1 mM NADH, 30 min at RT. The procedure: 17β-HSD2 production and isolation: Similarly to 17β-HSD1 the Recombinant baculovirus was generated by the “Bac to Bac Expression System” (Invitrogen). Recombinant bacmid was transfected to Sd9 insect cells using “Cellfectin Reagent” (Invitrogen). 60 h later cells were harvested and supernatant were fractionated by the following protocol: • cells were dissolved into 40 ml of A-buffer (40 mM TRIS, pH8.0, 20% glycerol, 20 μM NAD, 0.4 mM PMSF, 150 mM NaCl, 0.5% dodecyl-β-maltoside+protease inhibitor cocktail) • cells were sonicated • lysate was incubated on ice for 15 min • lysate was centrifuged 5000 rpm 15 min, +4° C. • centrifugation of the supernatant 180 000 g 30 min, +4° C. • pellet was dissolved into 8 ml of A-buffer • not resuspended material was removed by centrifugation 5000 rpm 15 min, +4° C. • the clear supernatant was divided into 100 μl aliquots and were stored frozen until determination of enzymatic activity.
The amount of 17β-HSD2 was analysed by immunoblotting and total protein concentration of each extract batch was determined.
Assay—Inhibition of recombinant human 17β-HSD2: Recombinant protein (4 μg/ml) was incubated in 20 mM KH2PO4 pH 8.5 with 50 nM estradiol (including 800 000 cpm/ml of ^3H-estradiol) and 1 mM NADH for 30 min at RT, in the presence of the potential inhibitor at concentrations 1 μM or 0.1 μM. Inhibitor stock solutions were prepared in DMSO. Final concentration of DMSO was adjusted to 1% in all samples. The enzyme reaction was stopped by addition of 10% trichloroacetic acid (final concentration). Samples were centrifuged in a microtiter plate at 4000 rpm for 10 min. Supernatants were applied to reverse phase HPLC on a Waters Symmetry C18 column, equipped with a Waters Sentry Guard column. Isocratic HPLC runs were performed at RT at a flow rate of 1 ml/min in acetonitrile:water 48:52 as running solvent. Radioactivity was monitored in the eluate by a Packard Flow Scintillation Analyzer. Total radioactivity for estrone and estradiol were determined in each sample and percent conversion of estradiol to estrone was calculated according to the following formula:
as §1

A word on the inhibition: it is the percentage by which the read-out fell short of the control. Consider `Cc1cnc(NC(=O)CC[C@@H]2c3c[nH]nc3[C@@]3(C)CCC4c5ccccc5CCC4C23)s1` (stereo partly drawn) [Compound 52, 3-((6aS,10S)-6a-methyl-4b,5,6,6a,8,10,10a,10b,11,12-decehydro-7,8-diaza-pentaleno[2,1-1]phenanthren-10-yl}-N-(5-methylthiazol-2-yl)propanamide], for which the inhibition at 1 µM in experiment [1] came out at 94%; in experiment [2], 0%.

For `Cc1cnc(NC(=O)CC[C@@H]2c3c[nH]nc3[C@@]3(C)CCC4c5cc(Br)c(O)c(Br)c5CCC4C23)s1` (stereo partly drawn) [Compound 54, 3-((6aS,10S)-1,3-dibromo-2-hydroxy-6a-methyl-4b,5,6,6a,8,10,10a,10b,11,12-decehydro-7,8-diaza-pentaleno[2,1-1]phenanthren-10-yl}-N-(5-methylthiazol-2-yl)propanamide], the figures for the inhibition at 1 µM in experiment [1] and in experiment [2] were 90% and 13%, respectively.

`Cc1cnc(NC(=O)CC[C@@H]2c3c[nH]nc3[C@@]3(C)CCC4c5ccc(O)c([N+](=O)[O-])c5CCC4C23)s1` (stereo partly drawn) [Compound 56, 3-((6aS,10S)-2-Hydroxy-6a-methyl-4-nitro-4b,5,6,6a,8,10,10a,10b,11,12-decehydro-7,8-diaza-pentaleno[2,1-1]phenanthren-10-yl}-N-(5-methylthiazol-2-yl)propanamide]: the inhibition at 1 µM turned out to be 97% in experiment [1] and 39% in experiment [2].

With `Cc1cnc(NC(=O)CC[C@@H]2C(=C\O)/C(=N\O)[C@@]3(C)CCC4c5ccc(O)cc5CCC4C23)s1` (stereo partly drawn) [Compound 69, 3-{(13S,15S)-3-Hydroxy-17-[(Z)-hydroxyimino]-16-[1-hydroxy-meth-(E)-ylidene]-13-methyl-7,8,9,11,12,13,14,15,16,17-decahydro-6H-cyclopenta[a]phenanthren-15-yl}-N-(5-methylthiazol-2-yl)propanamide], the values for the inhibition at 1 µM in experiment [1] and in experiment [2] were 98% and 2%, respectively.

For the compound `Cc1cnc(NC(=O)CC[C@@H]2C(=C\O)/C(=N\O)[C@@]3(C)CCC4c5ccc(O)c(Br)c5CCC4C23)s1` (stereo partly drawn) [Compound 71, 3-{(13S,15S)-4-Bromo-3-hydroxy-17-[(Z)-hydroxyimino]-16-[1-hydroxy-meth-(E)-ylidene]-13-methyl-7,8,9,11,12,13,14,15,16,17-decahydro-6H-cyclopenta[a]phenanthren-15-yl}-N-(5-methylthiazol-2-yl)propanamide], the figures for the inhibition at 1 µM in experiment [1] and in experiment [2] were 82% and 7%, respectively.

As for `COc1cc2c(cc1/C(C)=N/O)C1CC[C@]3(C)/C(=N/O)C[C@@H](CCC(=O)Nc4ncc(C)s4)C3C1CC2` (some centres unmarked) [Compound 72], the figures for the inhibition at 1 µM in experiment [1] and in experiment [2] were 77% and 3%, respectively.

For `CO/N=C1\C[C@@H](CCC(=O)Nc2ncc(C)s2)C2C3CCc4cc(OC)ccc4C3CC[C@]12C` (stereo partly drawn) [Compound 74, 3-{(13S,15R)-3-Methoxy-17-[(E)-methoxyimino]-13-methyl-7,8,9,11,12,13,14,15,16,17-decahydro-6H-cyclopenta[a]phenanthren-15-yl}-N-(5-methylthiazol-2-yl)propanamide], the inhibition at 1 µM was determined as 59% in experiment [1] and 2% in experiment [2].

Regarding `CO/N=C1\C[C@@H](CCC(=O)Nc2ncc(C)s2)C2C3CCc4cc(OC)c(I)cc4C3CC[C@]12C` (stereo partly drawn) [Compound 84, 3-{(13S,15R)-2-iodo-3-methoxy-17-[(E)-methoxyimino]-13-methyl-7,8,9,11,12,13,14,15,16,17-decahydro-6H-cyclopenta[a]phenanthren-15-yl}-N-(5-methylthiazol-2-yl)propanamide], the inhibition at 1 µM in experiment [1] was found to be 62%; in experiment [2], 1%.

Regarding `CO/N=C1\C[C@@H](CCC(=O)Nc2ncc(C)s2)C2C3CCc4cc(O)c(CN5CCOCC5)cc4C3CC[C@]12C` (stereo partly drawn) [Compound 98, 3-{(13S,15R)-3-Hydroxy-17-[(E)-methoxyimino]-13-methyl-2-morpholin-4-ylmethyl-7,8,9,11,12,13,14,15,16,17-decahydro-6H-cyclopenta[a]phenanthren-15-yl}-N-(5-methylthiazol-2-yl)propanamide], the inhibition at 1 µM is 57% in experiment [1] and 0% in experiment [2].

`CO/N=C1\C[C@@H](CCC(=O)Nc2ncc(C)s2)C2C3CCc4cc(OC(C)=O)ccc4C3CC[C@]12C` (stereo partly drawn) [Compound 100, Acetic acid (13S,15R)-17[(E)-methoxyimino]-13-methyl-15-[2-(5-methylthiazol-2-ylcarbamoyl)-ethyl]-7,8,9,11,12,13,14,15,16,17-decahydro-6H-cyclopenta[a]phenanthren-3-yl ester]: the inhibition at 1 µM in experiment [1] was 84%; in experiment [2], 1%.

Consider `CO/N=C1\C[C@@H](CCC(=O)Nc2ncc(C)s2)C2C3CCc4cc(OC(=O)CN(C)C)ccc4C3CC[C@]12C` (stereo partly drawn) [Compound 101, Dimethylamino-acetic acid (13S,15R)-17[(E)-methoxyimino]-13-methyl-15-[2-(5-methylthiazol-2-ylcarbamoyl)-ethyl]-7,8,9,11,12,13,14,15,16,17-decahydro-6H-cyclopenta[a]phenanthren-3-yl ester], for which the inhibition at 1 µM in experiment [1] turned out to be 88%; in experiment [2] it was 3%.

For the compound `CCO/N=C1\C[C@@H](CCC(=O)Nc2ncc(C)s2)C2C3CCc4cc(O)ccc4C3CC[C@]12C` (stereo partly drawn) [Compound 105, 3-{(13S,15R)-17-[(E)-Ethoxyimino]-3-hydroxy-13-methyl-7,8,9,11,12,13,14,15,16,17-decahydro-6H-cyclopenta[a]phenanthren-15-yl}-N-(5-methylthiazol-2-yl)propanamide], the inhibition at 1 µM came to 94% in experiment [1] and 3% in experiment [2].

For `C=CCO/N=C1\C[C@@H](CCC(=O)Nc2ncc(C)s2)C2C3CCc4cc(O)ccc4C3CC[C@]12C` (stereo partly drawn) [Compound 107, 3-{(13S,15R)-17-[(E)-Allyloxyimino]-3-hydroxyl-13-methyl-7,8,9,11,12,13,14,15,16,17-decahydro-6H-cyclopenta[a]phenanthren-15-yl}-N-(5-methylthiazol-2-yl)propanamide], the inhibition at 1 µM turned out to be 70% in experiment [1] and 3% in experiment [2].
